# In US20220296566A1, “COMBINATION PRODUCT CONTAINING LIMONOID COMPOUND AND ALPHA-GLUCOSIDASE INHIBITOR” (ZHEJIANG YANGSHENGTANG INSTITUTE OF NATURAL MEDICATION CO., …, priority 2019, published 2022):
# Tests used:
# [1] = system: db/db mice; assay: Blood glucose in mouse type II diabetes model, db/db mice (Example 4); assay type: in vivo; conditions: single agent 0.2 g/kg per day by gavage, two weeks, 1 h after last administration, mean ± SD
# Excerpt: Effects of limonoid compound, acarbose or combination thereof on blood glucose and insulin in mouse type II diabetes model
# In the present embodiment, the limonoid compound was selected from nomilin, deacetylnomilin, nomilin acid, deacetylnomilin acid glycoside, and acarbose single administration group, nomilin single administration group, deacetylnomilin single administration group, nomilin acid single administered group, deacetylnomilin acid glycoside single administration group, and respective combination thereof with acarbose administration groups were set.
# Conditions for experimental feeding: as type II diabetes model mice, 6-week-old SPF-grade db/db mice were purchased from the Nanjing Model Biology Institute, and subjected to experimental feeding after 7 days of preliminary feeding. […]
# Gavage doses: nomilin at a dose of 0.2 g/kg was gavaged per day for the nomilin group, deacetylnomilin at a dose of 0.2 g/kg was gavaged per day for the deacetylnomilin group, nomilin acid at a dose of 0.2 g/kg was gavaged per day for the nomilin acid group, deacetylnomilin acid glycoside at a dose of 0.2 g/kg was gavaged per day for the deacetylnomilin acid glycoside group, acarbose at a dose of 0.2 g/kg was gavaged per day for the acarbose group, nomilin at a dose of 0.1 g/kg and acarbose at a dose of 0.1 g/kg were simultaneously gavaged per day for the nomilin combination group, nomilin acid at a dose of 0.1 g/kg and acarbose at a dose of 0.1 g/kg were simultaneously gavaged per day for the nomilin acid combination group, deacetylnomilin at a dose of 0.1 g/kg and acarbose at a dose of 0.1 g/kg were simultaneously gavaged per day for the deacetylnomilin combination group, deacetylnomilin acid glycoside at a dose of 0.1 g/kg and acarbose at a dose of 0.1 g/kg were simultaneously gavaged per day for the deacetylnomilin acid glycoside combination group, the gavage volume was 10 mL/kg, and the normal group and the model group were administrated with 10 mL/kg of distilled water. […] The data were expressed as mean and standard deviation. […]
# [2] = system: STZ mice; assay: Blood glucose in STZ mouse pancreatic islet β-cell injury model (Example 1); assay type: in vivo; conditions: STZ ICR mice; single agent 0.02 g/kg per day by gavage, two weeks; 1 h after last administration; mean ± SD
# Excerpt: Effects of limonoid compound, acarbose or combination thereof on blood glucose in mouse pancreatic islet (3-cell injury model […]
# Gavage doses: the gavage dose was 0.02 g/kg per day for the limonin group, the gavage dose was 0.02 g/kg per day for the isolimonic acid group, the gavage dose was 0.02 g/kg per day for the limonin glycoside group, the gavage dose was 0.02 g/kg per day for the isolimonic acid glycoside group, the gavage dose of acarbose was 0.02 g/kg per day for the acarbose group, limonin at a dose of 0.01 g/kg and acarbose at a dose of 0.01 g/kg were simultaneously gavaged per day for the limonin/acarbose combination group, isolimonic acid at a dose of 0.01 g/kg and acarbose at a dose of 0.01 g/kg were simultaneously gavaged per day for the isolimonic acid/acarbose combination group, limonin glycoside at a dose of 0.01 g/kg and acarbose at a dose of 0.01 g/kg were simultaneously gavaged per day for the limonin glycoside/acarbose combination group, isolimonic acid glycoside at a dose of 0.01 g/kg and acarbose at a dose of 0.01 g/kg were simultaneously gavaged per day for the isolimonic acid glycoside/acarbose combination group, the gavage volume was 10 mL/kg, and the normal group and the model group were administrated with 10 mL/kg of distilled water. […] The data were expressed as mean and standard deviation. […]
smiles,measurement,setting,value
"C[C@H]1O[C@H](O[C@H]2[C@H](O)[C@@H](O)[C@@H](O[C@H]3[C@H](O)[C@@H](O)C(O)O[C@@H]3CO)O[C@@H]2CO)[C@H](O)[C@@H](O)[C@@H]1N[C@H]1C=C(CO)[C@@H](O)[C@H](O)[C@H]1O (some centres unmarked) [Acarbose, acarbose]",Blood glucose value,[1],13.6 ± 2.9 mmol/L
same,Blood glucose value,[2],22.1 ± 3.4 mmol/L
